ChEMBL document CHEMBL4265897, “Discovery of benzothiazole amides as potent antimycobacterial agents” (Bioorg Med Chem Lett, 2018)
In brackets after ≈: the same amount, converted by molar mass.

How the values were obtained:
Mycobacterium avium = assay: Antimycobacterial activity against Mycobacterium avium 101 by CLSI method; assay type: functional
[1] = system: Mycobacterium intracellulare; assay: Antimycobacterial activity against Mycobacterium intracellulare 1956 by CLSI method; assay type: functional
[2] = system: Mycobacteroides abscessus; assay: Antimycobacterial activity against Mycobacterium abscessus 1 by CLSI method; assay type: functional
[3] = system: Mycobacteroides abscessus; assay: Antimycobacterial activity against Mycobacterium abscessus 21 by CLSI method; assay type: functional
[4] = system: Mycobacteroides abscessus; assay: Antimycobacterial activity against Mycobacterium abscessus 79 by CLSI method; assay type: functional
[5] = system: Mycobacteroides abscessus; assay: Antimycobacterial activity against Mycobacterium abscessus 103 by CLSI method; assay type: functional
[6] = system: Mycobacteroides abscessus; assay: Antimycobacterial activity against Mycobacterium massiliense 119 by CLSI method; assay type: functional, Mycobacterium abscessus subsp. massiliense
Mycobacteroides chelonae = assay: Antimycobacterial activity against Mycobacterium chelonae 93 by CLSI method; assay type: functional
[7] = system: Mycolicibacterium fortuitum; assay: Antimycobacterial activity against Mycobacterium fortuitum 41 by CLSI method; assay type: functional
[8] = system: Mycolicibacterium peregrinum; assay: Antimycobacterial activity against Mycobacterium peregrinum ATCC 700686 by CLSI method; assay type: functional
[9] = system: Mycobacterium tuberculosis; assay: Antimycobacterial activity against Mycobacterium tuberculosis H37Rv MC2 6206 by CLSI method; assay type: functional
[10] = system: Mycobacteroides abscessus; assay: Antimycobacterial activity against Mycobacterium abscessus ATCC 19977 by CLSI method; assay type: functional

| Compound | MIC (Mycobacterium avium) | MIC [1] | MIC [2] | MIC [3] | MIC [4] | MIC [5] | MIC [6] | MIC (Mycobacteroides chelonae) | MIC [7] | MIC [8] | MIC [9] | MIC [10] |
| --- | --- | --- | --- | --- | --- | --- | --- | --- | --- | --- | --- | --- |
| CC1CC(C(=O)Nc2nc3c(F)cc(Br)cc3s2)CC(C)(C)C1 (centres undefined) | > 64 µg/mL | 16 µg/mL (≈ 40.1 µM) | 1 µg/mL (≈ 2.5 µM) | 0.5 µg/mL (≈ 1.25 µM) | 0.5 µg/mL (≈ 1.25 µM) | 1 µg/mL (≈ 2.5 µM) | 1 µg/mL (≈ 2.5 µM) | 0.25 µg/mL (≈ 0.626 µM) | 2 µg/mL (≈ 5.01 µM) | 0.5 µg/mL (≈ 1.25 µM) | – | – |
| CC1CC(C(=O)Nc2nc3ccc(F)cc3s2)CC(C)(C)C1 (centres undefined) | 8 µg/mL (≈ 25 µM) | 8 µg/mL (≈ 25 µM) | 0.5 µg/mL (≈ 1.56 µM) | 0.5 µg/mL (≈ 1.56 µM) | 0.5 µg/mL (≈ 1.56 µM) | 0.25 µg/mL (≈ 0.78 µM) | 0.25 µg/mL (≈ 0.78 µM) | 0.25 µg/mL (≈ 0.78 µM) | 0.25 µg/mL (≈ 0.78 µM) | 0.06 µg/mL (≈ 0.187 µM) | 4 µg/mL (≈ 12.5 µM) | – |
| CC12CCCC(C(=O)Nc3nc4cc(Br)ccc4s3)(CCC1)C2 | 4 µg/mL (≈ 10.2 µM) | 1 µg/mL (≈ 2.54 µM) | 0.25 µg/mL (≈ 0.636 µM) | 0.06 µg/mL (≈ 0.153 µM) | 0.06 µg/mL (≈ 0.153 µM) | 0.06 µg/mL (≈ 0.153 µM) | 0.06 µg/mL (≈ 0.153 µM) | 0.06 µg/mL (≈ 0.153 µM) | 0.03 µg/mL (≈ 0.0763 µM) | ≤ 0.07 µg/mL | ≤ 0.12 µg/mL | – |
| CC1CC(C(=O)Nc2nc3ccc(C(F)(F)F)cc3s2)CC(C)(C)C1 (centres undefined) | > 64 µg/mL | > 64 µg/mL | 0.5 µg/mL (≈ 1.35 µM) | 0.5 µg/mL (≈ 1.35 µM) | 0.5 µg/mL (≈ 1.35 µM) | – | 2 µg/mL (≈ 5.4 µM) | 0.25 µg/mL (≈ 0.675 µM) | 0.5 µg/mL (≈ 1.35 µM) | 0.25 µg/mL (≈ 0.675 µM) | – | – |
| CC1CC(C(=O)Nc2nc3cccc(F)c3s2)CC(C)(C)C1 (centres undefined) | 8 µg/mL (≈ 25 µM) | 16 µg/mL (≈ 49.9 µM) | 0.5 µg/mL (≈ 1.56 µM) | 0.25 µg/mL (≈ 0.78 µM) | 0.25 µg/mL (≈ 0.78 µM) | 0.5 µg/mL (≈ 1.56 µM) | 0.25 µg/mL (≈ 0.78 µM) | 0.5 µg/mL (≈ 1.56 µM) | 0.12 µg/mL (≈ 0.374 µM) | 0.06 µg/mL (≈ 0.187 µM) | 1 µg/mL (≈ 3.12 µM) | – |
| O=C(Nc1nc2ccc(C(F)(F)F)cc2s1)C1CCCC2(CC2)C1 (centres undefined) | > 64 µg/mL | > 64 µg/mL | 8 µg/mL (≈ 22.6 µM) | 2 µg/mL (≈ 5.64 µM) | 1 µg/mL (≈ 2.82 µM) | – | 2 µg/mL (≈ 5.64 µM) | 1 µg/mL (≈ 2.82 µM) | > 64 µg/mL | 1 µg/mL (≈ 2.82 µM) | – | 4 µg/mL (≈ 11.3 µM) |
| Cc1cc(C)c2sc(NC(=O)C3CC(C)CC(C)(C)C3)nc2c1 (centres undefined) | > 64 µg/mL | > 64 µg/mL | 0.5 µg/mL (≈ 1.51 µM) | 0.25 µg/mL (≈ 0.756 µM) | 0.25 µg/mL (≈ 0.756 µM) | 0.25 µg/mL (≈ 0.756 µM) | 0.5 µg/mL (≈ 1.51 µM) | 0.25 µg/mL (≈ 0.756 µM) | 0.5 µg/mL (≈ 1.51 µM) | 0.25 µg/mL (≈ 0.756 µM) | – | – |
| CC12CCCC(C(=O)Nc3nc4cc(F)cc(F)c4s3)(CCC1)C2 | 4 µg/mL (≈ 11.4 µM) | 4 µg/mL (≈ 11.4 µM) | 0.12 µg/mL (≈ 0.342 µM) | 0.06 µg/mL (≈ 0.171 µM) | 0.06 µg/mL (≈ 0.171 µM) | 0.06 µg/mL (≈ 0.171 µM) | 0.25 µg/mL (≈ 0.713 µM) | 0.06 µg/mL (≈ 0.171 µM) | 0.25 µg/mL (≈ 0.713 µM) | 0.06 µg/mL (≈ 0.171 µM) | – | – |
| CC12CCCC(C(=O)Nc3nc4c(F)c(F)c(F)cc4s3)(CCC1)C2 | > 8 µg/mL | 8 µg/mL (≈ 21.7 µM) | 0.25 µg/mL (≈ 0.679 µM) | 0.12 µg/mL (≈ 0.326 µM) | 0.12 µg/mL (≈ 0.326 µM) | 0.12 µg/mL (≈ 0.326 µM) | 0.12 µg/mL (≈ 0.326 µM) | 0.12 µg/mL (≈ 0.326 µM) | 0.5 µg/mL (≈ 1.36 µM) | 0.06 µg/mL (≈ 0.163 µM) | ≤ 0.12 µg/mL | – |
| CC1CC(C(=O)Nc2nc3c(Cl)cccc3s2)CC(C)(C)C1 (centres undefined) | > 64 µg/mL | 16 µg/mL (≈ 47.5 µM) | 2 µg/mL (≈ 5.94 µM) | 2 µg/mL (≈ 5.94 µM) | 4 µg/mL (≈ 11.9 µM) | – | 1 µg/mL (≈ 2.97 µM) | 2 µg/mL (≈ 5.94 µM) | 4 µg/mL (≈ 11.9 µM) | 1 µg/mL (≈ 2.97 µM) | – | 16 µg/mL (≈ 47.5 µM) |
| O=C(Nc1nc2ccc(C(F)(F)F)cc2s1)C1CC2CCC1C2 (centres undefined) | 32 µg/mL (≈ 94 µM) | 32 µg/mL (≈ 94 µM) | – | – | – | – | – | – | – | – | – | > 64 µg/mL |
| CC1CC(C(=O)Nc2nc3ccc(OC(F)F)cc3s2)CC(C)(C)C1 (centres undefined) | > 64 µg/mL | 8 µg/mL (≈ 21.7 µM) | 1 µg/mL (≈ 2.71 µM) | 0.5 µg/mL (≈ 1.36 µM) | 0.5 µg/mL (≈ 1.36 µM) | 0.5 µg/mL (≈ 1.36 µM) | 0.5 µg/mL (≈ 1.36 µM) | 0.25 µg/mL (≈ 0.679 µM) | 0.5 µg/mL (≈ 1.36 µM) | 0.12 µg/mL (≈ 0.326 µM) | 2 µg/mL (≈ 5.43 µM) | – |
| CC1CCC(C(=O)Nc2nc3ccc(C(F)(F)F)cc3s2)CC1 (centres undefined) | > 64 µg/mL | > 64 µg/mL | – | – | – | – | – | – | – | – | – | 64 µg/mL (≈ 187 µM) |
| CC1(C)CCCC(C(=O)Nc2nc3ccc(C(F)(F)F)cc3s2)C1 (centres undefined) | > 64 µg/mL | > 64 µg/mL | > 64 µg/mL | 64 µg/mL (≈ 180 µM) | 64 µg/mL (≈ 180 µM) | – | 0.5 µg/mL (≈ 1.4 µM) | 0.25 µg/mL (≈ 0.701 µM) | > 64 µg/mL | 64 µg/mL (≈ 180 µM) | – | – |
| CC1CC(C(=O)Nc2nc3cc(Cl)cc(Cl)c3s2)CC(C)(C)C1 (centres undefined) | 8 µg/mL (≈ 21.5 µM) | 16 µg/mL (≈ 43.1 µM) | – | 0.25 µg/mL (≈ 0.673 µM) | 0.12 µg/mL (≈ 0.323 µM) | 0.5 µg/mL (≈ 1.35 µM) | 0.25 µg/mL (≈ 0.673 µM) | 0.12 µg/mL (≈ 0.323 µM) | 0.25 µg/mL (≈ 0.673 µM) | 0.12 µg/mL (≈ 0.323 µM) | 1 µg/mL (≈ 2.69 µM) | – |
| CC12CCCC(C(=O)Nc3nc4ccc(Br)cc4s3)(CCC1)C2 | 8 µg/mL (≈ 20.3 µM) | 4 µg/mL (≈ 10.2 µM) | 0.25 µg/mL (≈ 0.636 µM) | 0.12 µg/mL (≈ 0.305 µM) | 0.12 µg/mL (≈ 0.305 µM) | 0.12 µg/mL (≈ 0.305 µM) | 0.12 µg/mL (≈ 0.305 µM) | 0.25 µg/mL (≈ 0.636 µM) | 0.5 µg/mL (≈ 1.27 µM) | 0.12 µg/mL (≈ 0.305 µM) | – | – |
